# Measurements as given in US5049637A, “1,2,3,4,10,14b-hexahydrodibenzo[c,f]pyrazino-[1,2-a]azepino derivatives and 10-aza, 10-oxa and 10-thia analogues” (Monash University, priority 1987, dated 1991).
# Columns and labels:
# [1] = system: depressor effects of histamine; assay: Depressor effects of histamine in rats; assay type: in vivo, rat; details: Rattus norvegicus, intravenous, read-out: Intravenous dose reducing the depressor effects of histamine
# Method: (§1) The compound of Example 2 was found in low concentrations to inhibit contractions of the guinea-pig isolated ileum and rat isolated stomach strip caused by histamine and 5-hydroxytryptamine respectively. […] Concomitantly, the depressor effects of histamine were blocked, as were the pressor effects of 5-hydroxytryptamine for over 30 minutes. The pressor effects of 5-hydroxytryptamine in anaesthetised and pithed rats were inhibited by intravenous doses of 0.3-1.0 mg/kg body weight. Slightly higher doses reduced the bradycardia and the depressor response (the Bezold-Jarisch reflex mediated by 5-HT3 receptors) to 5-hydroxytryptamine in anaesthetised rats. The drug inhibited oedema in the rat paw caused by intraplantar 5-hydroxytryptamine. […] In mice it inhibited diarrhoea caused by L-5-hydroxytryptophan. In guinea pigs, intravenous doses of 0.03 mg/kg and above reduced the bronchoconstrictor effects of histamine and 5-hydroxytryptamine.
# (§2) The compound of Example 4 when injected into rats at intravenous doses of 0.3 mg/kg or greater reduced the pressor effects of 5-hydroxytryptamine and also the depressor effects of histamine. In cats, the effect of histamine was reduced after these doses also.
# [2] = system: isolated guinea pig ileum (histamine-induced contractions); assay: Block of histamine-induced contraction of the isolated guinea-pig ileum
# Method: as §1
# (§3) Compounds according to formula I were tested for their ability to block contractions of the isolated guinea pig ileum induced by KCl, carbachol, or histamine at a concentration of 10^-7 M. Ileum preparations were prepared according to standard methodology. The concentrations shown are the minimum required to show activity.
# [3] = system: isolated guinea pig ileum (carbachol-induced contractions); assay: Block of carbachol-induced contraction of the isolated guinea-pig ileum; details: block of contractions of isolated guinea pig ileum induced by carbachol
# Method: as §3
# isolated rat uterus = assay: Isolated rat uterus in vitro
# [4] = system: pressor effects of 5-hydroxytryptamine; assay: Pressor effects of 5-hydroxytryptamine in rats; assay type: in vivo, rat; details: rat, intravenous; read-out: Intravenous dose depressing/reducing the pressor responses to 5-hydroxytryptamine
# Method: as §1
# (§4) In cats, the effects of the ganglion stimulant McNeil -A-343 and histamine were reduced. Following intravenous injection into guinea-pigs, […] reduced histamine and 5-hydroxytryptamine induced broncho-constriction. Concentrations of 1 μg/ml or greater relaxed the isolated rat uterus in vitro.
# as §2
# [5] = system: isolated guinea pig ileum (KCl-induced contractions); assay: Block of KCl-induced contraction of the isolated guinea-pig ileum; details: block of contractions of isolated guinea pig ileum induced by KCl
# Method: as §3
# [6] = system: depressor effects of histamine; assay: Effects of histamine in cats; assay type: in vivo, cat; details: intravenous
# Method: as §1, §4, §2
# [7] = system: bronchoconstrictor effects of histamine and 5-hydroxytryptamine; assay: Histamine and 5-hydroxytryptamine induced bronchoconstriction in guinea pigs; assay type: in vivo, guinea pig; details: Cavia porcellus, intravenous, read-out: Intravenous dose reducing histamine and 5-hydroxytryptamine bronchoconstriction
# Method: as §1, §4, §2
# Thus doses of 1 mg/kg given intraperitoneally attenuated the facilitation of spinal reflex activity caused by p-chloroamphetamine, and also the facilitation of spinal reflexes induced by fenfluramine in spinal and decerebrate rats. […] The drug in doses of 10 and 20 mg/kg intraperitoneally and in doses of 20 mg/kg by mouth attenuated morphine-induced catalepsy. We conclude therefore that this drug is an orally active drug with central actions, particularly affecting serotonergic mechanisms, but has no effect in vitro (Table 1). […] Thus it was found after intravenous doses of 0.03 mg/kg to reduce histamine and 5-hydroxytryptamine bronchoconstriction in the guinea pig.
# [8] = system: arterial blood pressure and heart rate; assay: Arterial blood pressure and heart rate in guinea pigs after intravenous doses; assay type: in vivo, guinea pig; details: intravenous 0.01 mg/kg or greater
structure (smiles),measurement,setting,value
"NC(=S)N1CCN2c3ccccc3Cc3ccccc3C2C1 (centres unmarked) [Example 4, 2-Thiocarboxamido-1,2,3,4,10,14b-hexahydrodibenzo [c,f]pyrazino[1,2-a]azepine]",minimal effective dose,[1],≥ 0.3 mg/kg
same,minimal effective concentration,"[2]; Cavia porcellus, isolated guinea pig ileum, histamine 10^-7 M, read-out: Effect on Histamine: minimum concentration required to show activity",0.01 to 0.1 µM
same,Effect on Histamine,[2]; block of contractions of isolated guinea pig ileum induced by histamine at 10^-7 M,++
same,Effect on Carbachol,[3],- (no effect)
same,Concentration reducing contractions of the isolated rat uterus caused by 5-hydroxytryptamine or high potassium concentrations,isolated rat uterus,≥ 0.1 µg/mL
same,Anti-spasmodic action,isolated rat uterus; 0.1 μg/ml or greater,anti-spasmodic action
same,minimal effective dose,[4],≥ 0.3 mg/kg
same,Effect on KCl,[5],- (no effect)
same,Effects of histamine (depressor) in cats,[6],reduced
same,minimal effective dose,[7],≥ 0.01 mg/kg
same,Effects on arterial blood pressure and heart rate compared with the compound of Example 2,[8],smaller effects
